Results from patent US20230277613A1, “Polysaccharide-Rich Bombax Costatum Flower Extract” (priority 2020, published 2023).
Marks after values point to notes of the source that are not given here.

Tests used:
[1] = test system: Staphylococcus epidermidis (ATCC 12228); test: In vitro sniff test and viability in reconstituted sweat, S. epidermidis; format: cell-based; parameters: key to Odor (Sniff) 6 h / Odor (Sniff) 24 h: 1. Absent (comparable to 0.1% chlorhexidine positive control); 2. Moderate; 3. Intense (bacteria-specific olfactory signature); conditions: 0.1% (BCP or chlorhexidine digluconate)
Protocol: (§1) Staphylococcus epidermidis (ATCC 12228) and Corynebacterium striatum (ATCC 6940) strains were used. Each of these strains has a typical olfactory signature, the result of the metabolism of sweat components: • S. epidermidis: Valeric and propionic acid; • C. striatum: Sulphanyl alcohols. Each bacterial strain was inoculated into a reconstituted sweat solution in the presence of the BCP extract at 0.1%; 0.6% or 2% or 0.1% chlorhexidine digluconate (positive control). After 6 h and 24 h of incubation: The bacterial viability was evaluated by bacterial count expressed in CFU/ml. A sniff test was carried out to determine the olfactory signature qualitatively and semi-quantitatively (intensity of the smell) immediately after opening the vial, the smell was evaluated and scored by a trained operator: • 1. […] Moderate • 3. Intense (bacteria-specific olfactory signature)

[2] = test system: Corynebacterium striatum (ATCC 6940); test: In vitro sniff test and viability in reconstituted sweat, C. striatum; format: cell-based; parameters: key to Odor (Sniff) 6 h / Odor (Sniff) 24 h: 1. Absent (comparable to 0.1% chlorhexidine positive control); 2. Moderate; 3. Intense (bacteria-specific olfactory signature); conditions: 0.1% (BCP or chlorhexidine digluconate)
Protocol: as §1

hBD2 [3] = test: hBD2 gene expression in keratinocytes (real-time quantitative RT-PCR); format: cell-based, human; conditions: IL1β 100 ng/ml
Protocol: (§2) Normal human epidermal keratinocytes were treated for 24 or 48 hours with BCP extract or IL1β at 100 ng/ml (positive reference). At the end of the treatment, the gene expression of hBD2, hBD3 and TLR2 was analyzed by real-time quantitative RT-PCR.

hBD3 = hBD3 gene expression in keratinocytes (real-time quantitative RT-PCR); format: cell-based, human; conditions: IL1β 100 ng/ml
Protocol: as §2

TLR2 [4] = test: TLR2 gene expression in keratinocytes (real-time quantitative RT-PCR); format: cell-based, human; conditions: IL1β 100 ng/ml
Protocol: as §2

hBD2 [5] = test: Intracellular hBD2 production in keratinocytes (ELISA); format: cell-based, human; conditions: IL1β 100 ng/ml
Protocol: (§3) Normal human epidermal keratinocytes were treated for 24 or 48 hours with BCP extract or IL1β at 100 ng/ml (positive reference). Moreover, the quantities of TLR2 and intracellular hBD2 were measured by ELISA.

TLR2 [6] = test: TLR2 production in keratinocytes (ELISA); format: cell-based, human; conditions: IL1β 100 ng/ml
Protocol: as §3

IL1α (interleukin 1α) = test: IL1-alpha produced by NHKs under PMA stress (ELISA); format: cell-based, human
Protocol: (§4) Normal Human Keratinocytes (NHK) were treated for 24 hours at 37° C. with the Bombax costatum Polysaccharide extract according to Example 1 (called BCP extract) at 0.01% and/or 0.05% of dry matter (DM) or by Dexamethasone or Indomethacin at 10^-7M (anti-inflammatory reference molecules). The cells were then treated by adding PMA at 10 μg/ml (Phorbol Myristate Acetate, inflammation-inducing agent) for 16 hours at 37° C. At the end of the treatment, the quantities of IL1α (interleukin 1α), PGE2 (Prostaglandin-E2), IL1β (Interleukin 1β), TNFα (Tumor Necrosis Factor α), IL6 (Interleukin 6) and IL8 (Interleukin 8) secreted were measured by the ELISA technique in the culture supernatants.
(§5) The significance of the results was assessed by a one-way analysis of variance followed by a Tuckey test.

IL1β (Interleukin 1β) = test: IL1-beta produced by NHKs under PMA stress (ELISA); format: cell-based, human
Protocol: as §4, §5

IL6 (Interleukin 6) = test: IL6 produced by NHKs under PMA stress (ELISA); format: cell-based, human
Protocol: as §4, §5

IL8 (Interleukin 8) = test: IL8 produced by NHKs under PMA stress (ELISA); format: cell-based, human
Protocol: as §4, §5

[7] = test system: TNFα (Tumor Necrosis Factor α); test: TNF-alpha produced by NHKs under PMA stress (ELISA); format: cell-based, human
Protocol: as §4, §5

PGE2 (Prostaglandin-E2) = test: PGE2 produced by NHKs under PMA stress (ELISA); format: cell-based, human
Protocol: as §4, §5

[8] = Dexamethasone 0.1 μM 24 hours, then PMA 10 μg/ml 16 hours
[9] = Dexamethasone 0.1 μM, vs PMA 10 μg/ml

[H]/N=C(\N/C(=N/[H])NCCCCCCNC(=N)NC(=N)Nc1ccc(Cl)cc1)Nc1ccc(Cl)cc1 [Chlorhexidine, chlorhexidine digluconate]
Viability 24 h ([1]; control 8.69 ± 0.09): 0.00 ± 0.00 Log10 CFU/ml
Viability 6 h ([1]; control 8.91 ± 0.21): 0.00 ± 0.00 Log10 CFU/ml
Odor (Sniff) 6 h ([1]; control Intense): Absent
Odor (Sniff) 24 h ([1]; control Intense): Absent
Viability 6 h ([2]; control 8.51 ± 0.08): 0.00 ± 0.00 Log10 CFU/ml
Viability 24 h ([2]; control 8.64 ± 0.19): 0.00 ± 0.00 Log10 CFU/ml
Odor (Sniff) 6 h ([2]; control Moderate): Absent
Odor (Sniff) 24 h ([2]; control Moderate): Intense

IL1β: IL1β at 100 ng/ml (positive reference)
hBD2 RQ (hBD2 [3]; 24 or 48 hours, control 1.12): 3480.89
hBD2 Evolution (hBD2 [3]; vs Control): ×3000 ***
hBD3 RQ (hBD3; 24 or 48 hours, control 1.09): 9.04
hBD3 Evolution (hBD3; vs Control): +730% ***
TLR2 RQ (TLR2 [4]; 24 or 48 hours, control 1.08): 3.26
TLR2 Evolution (TLR2 [4]; vs Control): +201% ***
hBD2 intracellular protein (hBD2 [5]; 24 or 48 hours, control 141.5 ± 15.2): 2162.7 ± 51.1 pg/mL
hBD2 protein Evolution (hBD2 [5]; vs Control): +1428% ***
TLR2 protein (TLR2 [6]; 24 or 48 hours, control 735.9 ± 39.2): 913.7 ± 30.5 pg/mL
TLR2 protein Evolution (TLR2 [6]; vs Control): +24% **

C[C@@H]1C[C@H]2[C@@H]3CCC4=CC(=O)C=C[C@]4(C)[C@@]3(F)[C@@H](O)C[C@]2(C)[C@@]1(O)C(=O)CO [Dexamethasone]
IL1α Average (IL1α (interleukin 1α); [8]): 230.583 pg/mL
IL1α Evolution (IL1α (interleukin 1α); [9]): −38%
IL1β Average (IL1β (Interleukin 1β); [8]): 34.410 pg/mL
IL1β Evolution (IL1β (Interleukin 1β); [9]): −32%
IL6 Average (IL6 (Interleukin 6); [8]): 2.090 pg/mL
IL6 Evolution (IL6 (Interleukin 6); [9]): −70%
IL8 Average (IL8 (Interleukin 8); [8]): 4076.675 pg/mL
IL8 Evolution (IL8 (Interleukin 8); [9]): −59
TNFα Average [7, 8]: 16.216 pg/mL
TNFα Evolution [7, 9]: −52%
PGE2 Average (PGE2 (Prostaglandin-E2); [8]): 39.000 pg/mL
PGE2 Evolution (PGE2 (Prostaglandin-E2); [9]): −94%
